# Experimental data published in ChEMBL document CHEMBL1127472, “Inhibition of topoisomerase I by anthracycline antibiotics: evidence for general inhibition of topoisomerase I by DNA-binding agents” (J Med Chem, 1994).
# Key:
# [1] = test system: DNA topoisomerase 1 (Bos taurus); assay: Ratio of DNA relaxation times by topoisomerase in presence of 2 uM of compound (t1/e(+drug) / t 1/e(-drug))
# [2] = test system: DNA topoisomerase 1 (Bos taurus); assay: Ratio of DNA relaxation times by topoisomerase in presence of 9 uM of compound (t1/e(+drug) / t 1/e(-drug))
# [3] = test system: DNA topoisomerase 1 (Bos taurus); assay: Ratio of DNA relaxation times by topoisomerase in presence of 20 uM of compound (t1/e(+drug) / t 1/e(-drug)); Initial complete inhibition
# [4] = test system: DNA; assay: Binding constant was measured for DNA binding at 20 uM concentration
# [5] = test system: DNA topoisomerase 1 (Bos taurus); assay: Ratio of DNA relaxation times by topoisomerase in presence of 20 uM of compound (t1/e(+drug) / t 1/e(-drug)); Complete inhibition
# [6] = test system: DNA topoisomerase 1 (Bos taurus); assay: Ratio of DNA relaxation times by topoisomerase in presence of 18 uM of compound (t1/e(+drug) / t 1/e(-drug))
# [7] = test system: DNA; assay: Binding constant was measured for DNA binding at 17 uM concentration
# [8] = test system: DNA topoisomerase 1 (Bos taurus); assay: Ratio of DNA relaxation times by topoisomerase in presence of 17 uM of compound (t1/e(+drug) / t 1/e(-drug)); Initial complete inhibition
SMILES,Ratio [1],Ka1 [4],Ratio [5],also measured
COc1cccc2c1C(=O)c1c(O)c3c(c(O)c1C2=O)C[C@@](O)(C(C)=O)C[C@@H]3OC1CC(O)C(CC2CC(O)C(CC3CCC(=O)C(C)O3)CO2)C(C)O1 (stereo not given in full),0.92,–,–,Ratio [2]: 1.4
COc1cccc2c1C(=O)c1c(O)c3c(c(O)c1C2=O)C[C@@](O)(C(C)=O)C[C@@H]3OC1OC(C)C(CC2CC(O)C(CC3CCC(=O)C(C)O3)CO2)C(O)C1I (stereo not given in full),1.4,–,–,Ratio [3]: Initial complete inhibition
COc1cccc2c1C(=O)c1c(O)c3c(c(O)c1C2=O)C[C@@](O)(C(C)=O)C[C@@H]3OC1OC(c2ccccc2)C(O)C(O)C1I (stereo not given in full),3.5,400,Complete inhibition,–
COc1cccc2c1C(=O)c1c(O)c3c(c(O)c1C2=O)C[C@@](O)(C(C)=O)C[C@@H]3OC1OC(C)C(O)C(O)C1I (stereo in doubt; 2),2,120,Complete inhibition,–
COc1cccc2c1C(=O)c1c(O)c3c(c(O)c1C2=O)C[C@@](O)(C(C)=O)C[C@@H]3OC1OC(C)C(O)C(O)C1I (stereo in doubt; form 1),0.76,–,–,Ratio [6]: 1
COc1cccc2c1C(=O)c1c(O)c3c(c(O)c1C2=O)C[C@@](O)(C(C)=O)C[C@@H]3OC1OC(C)C(O)C(O)C1I (stereo in doubt; form 2),1.5,–,–,Ka1 [7]: 5; Ratio [8]: Complete inhibition
